We go through one compound from ChEMBL document CHEMBL1122789, “Synthesis and biological activity of structural analogues of the anticancer benzophenanthridine alkaloid nitidine chloride” (1984).

The nature of test [1]: Evaluated for anticancer activity in tumor inhibition system CD8F1 mammary tumors at a dose of mg/kg;Number of Tested survived/number of control survived (10/10). The format is functional, Mus musculus.
The next test relates to KB. Put plainly: Evaluated in vitro for cytotoxicity against KB cell culture system. The settings on record: Homo sapiens, read-out: ED50 (the source's name). The format is functional.
Test [2] in a line: Evaluated for anticancer activity in tumor inhibition system colon 38 tumors at a dose of 50 mg/kg; Number of Tested survived/number of control survived (10/10). In kind it is functional, Mus musculus.

With `COc1cc2c[n+](C)c3c(c2cc1OC)Cc1cc2c(cc1-3)OCO2.[Cl-]`, the Survival in test [1] and in test [2] was 10 each time. For the same compound, the EC50 in the test on KB is 0.038 µg/mL.
